Here are results for 24 compounds from patent US20170334899A1, “AMINO-SUBSTITUTED ISOTHIAZOLES” (Bayer Pharma Aktiengesellschaft, priority 2014, published 2017).

SMILES strings stand for the structures.

The test system of experiment [1] is human cervical tumor cell line HeLa (ATCC CCL-2). Description: SAC-Formation - Nocodazole-Induced Assay. The format is cell-based. To be noted: Homo sapiens, HeLa, 24 h, HeLa cells, nocodazole 0.1 μg/ml together with test compound, decrease of mitotic cells (phospho-histone H3 Ser10). The procedure, abridged:
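HeLa cells, plated overnight, were treated 24 h at 37 °C with nocodazole (0.1 μg/ml final) plus test compound (0.005–20 μM, 0.5% DMSO) added at the same time. After fixation, anti-phospho-histone H3 Ser10 and Hoechst staining gave the mitotic cell fraction by imaging. Values came from four-parameter Hill fits.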

A further experiment deals with HeLa. Description: Proliferation assay (crystal violet), HeLa. To be noted: Homo sapiens, HeLa, 96 h, HeLa cells; 4 days incubation; crystal violet staining; read-out: IC50 inhibition of proliferation, HeLa. The format is cell-based. The procedure, abridged:
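Tumor cells seeded at 1000–5000 cells/well in medium with 10% FCS; after 24 h, compounds added at 0.001–10 μM (0.5% DMSO) for 4 days. Cells fixed with glutaraldehyde, stained with crystal violet, dye dissolved in acetic acid and read at 595 nm. IC50 from 4-parameter fit, normalized to zero-point plate and untreated cells.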

Regarding `Cc1nsc(Nc2cnc3ccccc3n2)c1C(=O)Nc1cccc(NS(=O)(=O)C2CCN(CCC(F)(F)F)CC2)c1` [Example 283, 3-methyl-5-(quinoxalin-2-ylamino)-N-[3-({[1-(3,3,3-trifluoropropyl)piperidin-4-yl]sulfonyl}amino)phenyl]-1,2-thiazole-4-carboxamide], the values for the IC50 (in experiment [1]; with HeLa) were 3300 nM and 8400 nM, respectively.
Turning to `Cc1nsc(Nc2cnc(C(F)(F)F)cn2)c1C(=O)Nc1ccc(C(=O)N2CCN(C)CC2)cc1` [Example 262, 3-methyl-N-{4-[(4-methylpiperazin-1 yl)carbonyl]phenyl}-5-{[5-(trifluoromethyl)pyrazin-2-yl]amino}-1,2-thiazole-4-carboxamide], the IC50 in experiment [1] is 260 nM; in the experiment on HeLa, 9400 nM.
For the compound `Cc1nsc(Nc2cnc(C(F)(F)F)cn2)c1C(=O)Nc1ccc(F)c(OC2CCN(CC(F)(F)F)CC2)c1` [Example 264, N-(4-fluoro-3-{[1-(2,2,2-trifluoroethyl)piperidin-4-yl]oxy}phenyl)-3-methyl-5-{[5-(trifluoromethyl)pyrazin-2-yl]amino}-1,2-thiazole-4-carboxamide], the figures for the IC50 (in experiment [1]; with HeLa) were 35 nM and 130 nM, respectively.
Take `Cc1nsc(Nc2ccc(C#N)cn2)c1C(=O)Nc1ccc(OC2CCN(C(=O)OC(C)(C)C)CC2)nc1` [Example 27, tert-Butyl 4-({5-[({5-[(5-cyanopyridin-2-yl)amino]-3-methyl-1,2-thiazol-4-yl}-carbonyl)amino]pyridin-2-yl}oxy)piperidine-1-carboxylate]: the IC50 in experiment [1] was found to be 150 nM; in the experiment on HeLa it was 630 nM.
As to `Cc1nsc(Nc2cnc(C(F)(F)F)cn2)c1C(=O)Nc1ccc(F)c(OCC2CCN(C(CF)CF)CC2)c1` [Example 312, N-(3-{[1-(1,3-difluoropropan-2-yl)piperidin-4-yl]methoxy}-4-fluorophenyl)-3-methyl-5-{[5-(trifluoromethyl)pyrazin-2-yl]amino}-1,2-thiazole-4-carboxamide], the IC50 in experiment [1] came out at 82 nM; in the experiment with HeLa, 420 nM.
Regarding `Cc1nsc(Nc2cnc(C(F)(F)F)cn2)c1C(=O)Nc1ccc(OCCNCC(F)(F)F)nc1` [Example 322, 3-methyl-N-(6-{2-[(2,2,2-trifluoroethyl)amino]ethoxy}pyridin-3-yl)-5-{[5-(trifluoromethyl)pyrazin-2-yl]amino}-1,2-thiazole-4-carboxamide], the IC50 in experiment [1] stood at 69 nM; in the experiment with HeLa it was 690 nM.
Take `Cc1nsc(Nc2cnc(C(F)(F)F)cn2)c1C(=O)Nc1ccc(N(C)C)c(OCCCN(C)CCC(F)(F)F)c1` [Example 300, N-[4-(dimethylamino)-3-{3-[methyl(3,3,3-trifluoropropyl)amino]propoxy}phenyl]-3-methyl-5-{[5-(trifluoromethyl)pyrazin-2-yl]amino}-1,2-thiazole-4-carboxamide]: the figures for the IC50 (in experiment [1]; with HeLa) were 440 nM and 550 nM, respectively.
In the case of `CC(=O)N1CCC(Oc2ccc(NC(=O)c3c(C)nsc3Nc3cnc4ccccc4n3)cn2)CC1` [Example 22, N-{6-[(1-acetylpiperidin-4-yl)oxy]pyridin-3-yl}-3-methyl-5-(quinoxalin-2-ylamino)-1,2-thiazole-4-carboxamide], the IC50 in experiment [1] was found to be 580 nM; in the experiment with HeLa, 7600 nM.
In the case of `Cc1nsc(Nc2cnc3ccccc3n2)c1C(=O)Nc1cccc(NS(=O)(=O)C2CCN(C(=O)OC(C)(C)C)CC2)c1` [Example 258, tert-butyl 4-{[3-({[3-methyl-5-(quinoxalin-2-ylamino)-1,2-thiazol-4-yl]carbonyl}amino)phenyl]sulfamoyl} piperidine-1-carboxylate], the IC50 in experiment [1] came out at 600 nM; with HeLa, 7000 nM.
Turning to `Cc1nsc(Nc2cnc3ccccc3n2)c1C(=O)Nc1ccc(OC2CCN(CC(F)(F)F)CC2)nc1` [Example 21, 3-Methyl-5-(quinoxalin-2-ylamino)-N-(6-{[1-(2,2,2-trifluoroethyl)piperidin-4-yl]oxy}-pyridin-3-yl)-1,2-thiazole-4-carboxamide], the figures for the IC50 (in experiment [1]; in the experiment with HeLa) were 61 nM and 870 nM, respectively.
As to `CCNC(=O)c1cccc(NC(=O)c2c(C)nsc2Nc2ccc(C#N)cn2)c1` [Example 252, 5-[(5-cyanopyridin-2-yl)amino]-N-[3-(ethylcarbamoyl)phenyl]-3-methyl-1,2-thiazole-4-carboxamide], the IC50 in experiment [1] is 530 nM; with HeLa, above 10000 nM.
The like results for `Cc1nsc(Nc2cnc3ccccc3n2)c1C(=O)Nc1cccc(C(=O)NC2CC2)c1` [Example 249, N-[3-(cyclopropylcarbamoyl)phenyl]-3-methyl-5-(quinoxalin-2-ylamino)-1,2-thiazole-4-carboxamide] were, in that order, 960 nM and 6200 nM.
Turning to `Cc1nsc(Nc2cnc3ccccc3n2)c1C(=O)Nc1cccc(NS(=O)(=O)C2CN(CCC(F)(F)F)C2)c1` [Example 288, 3-methyl-5-(quinoxalin-2-ylamino)-N-[3-({[1-(3,3,3-trifluoropropyl)azetidin-3-yl]sulfonyl}amino)phenyl]-1,2-thiazole-4-carboxamide], the IC50 in experiment [1] came out at 7700 nM; in the experiment with HeLa, 9900 nM.
As for `Cc1nsc(Nc2cnc(C(F)(F)F)cn2)c1C(=O)Nc1ccc(OCCCNCC(F)F)nc1` [Example 293, N-(6-{3-[(2,2-difluoroethyl)amino]propoxy}pyridin-3-yl)-3-methyl-5-{[5-(trifluoromethyl)pyrazin-2-yl]amino}-1,2-thiazole-4-carboxamide], the IC50 in experiment [1] was determined as 3100 nM; in the experiment with HeLa, 5300 nM.
Take `Cc1nsc(Nc2cnc(C(F)(F)F)cn2)c1C(=O)Nc1ccc(C(=O)NC2CN(CC(F)(F)F)C2)cc1` [Example 270, 3-methyl-N-(4-{[1-(2,2,2-trifluoroethyl)azetidin-3-yl]carbamoyl}phenyl)-5-{[5-(trifluoromethyl)pyrazin-2-yl]amino}-1,2-thiazole-4-carboxamide]: the values for the IC50 (in experiment [1]; with HeLa) were 950 nM and above 10000 nM, respectively.
For the compound `Cc1nsc(Nc2cnc(C(F)(F)F)cn2)c1C(=O)Nc1ccc(F)c(OCCCN(C)CC(F)F)c1` [Example 301, N-(3-{3-[(2,2-difluoroethyl)(methyl)amino]propoxy}-4-fluorophenyl)-3-methyl-5-{[5-(trifluoromethyl)pyrazin-2-yl]amino}-1,2-thiazole-4-carboxamide], the IC50 in experiment [1] worked out at 110 nM; with HeLa it was 360 nM.
Take `Cc1nsc(Nc2cnc(C(F)(F)F)cn2)c1C(=O)Nc1ccc(F)c(OCCCN(C)CC(F)(F)F)c1` [Example 302, N-(4-fluoro-3-{3-[methyl(2,2,2-trifluoroethyl)amino]propoxy}phenyl)-3-methyl-5-{[5-(trifluoromethyl)pyrazin-2-yl]amino}-1,2-thiazole-4-carboxamide]: the results for the IC50 (in experiment [1]; with HeLa) were 70 nM and 340 nM, respectively.
As for `COC(=O)CCCc1ccc(NC(=O)c2c(C)nsc2Nc2cc(C#N)ccn2)cc1` [Example 256, methyl 4-{4-[({5-[(4-cyanopyridin-2-yl)amino]-3-methyl-1,2-thiazol-4-yl}carbonyl)amino]phenyl}butanoate], the results for the IC50 (in experiment [1]; in the experiment on HeLa) were 1600 nM and above 10000 nM, respectively.
Turning to `Cc1nsc(Nc2cnc(C(F)(F)F)cn2)c1C(=O)Nc1ccc(OCCCNCCC(F)(F)F)nc1` [Example 294, 3-methyl-5-{[5-(trifluoromethyl)pyrazin-2-yl]amino}-N-(6-{3-[(3,3,3-trifluoropropyl)amino]propoxy}pyridin-3-yl)-1,2-thiazole-4-carboxamide], the results for the IC50 (in experiment [1]; in the experiment with HeLa) were 450 nM and 1300 nM, respectively.
The matching figures for `Cc1nsc(Nc2cnc(C(F)(F)F)cn2)c1C(=O)Nc1ccc(OCCCO)nc1` [Example 279, N-[6-(3-hydroxypropoxy)pyridin-3-yl]-3-methyl-5-{[5-(trifluoromethyl)pyrazin-2-yl]amino}-1,2-thiazole-4-carboxamide]: 120 nM and 2200 nM.
The like results for `Cc1nsc(Nc2cnc(C(F)(F)F)cn2)c1C(=O)Nc1ccc(OC2CCN(CC(F)F)C2)nc1` (stereo not drawn) [Example 296, N-(6-{[1-(2,2-difluoroethyl)pyrrolidin-3-yl]oxy}pyridin-3-yl)-3-methyl-5-{[5-(trifluoromethyl)pyrazin-2-yl]amino}-1,2-thiazole-4-carboxamide] were, in that order, 180 nM and 600 nM.
As to `CCN1CCC(Oc2ccc(NC(=O)c3c(C)nsc3Nc3cc(C#N)ccn3)cn2)CC1` [Example 26, 5-[(4-Cyanopyridin-2-yl)amino]-N-{6-[(1-ethylpiperidin-4-yl)oxy]pyridin-3-yl}-3-methyl-1,2-thiazole-4-carboxamide], the IC50 in experiment [1] is 2400 nM; with HeLa it was 10000 nM.
Take `Cc1nsc(Nc2cnc3ccccc3n2)c1C(=O)Nc1ccc(N2CCN(C(=O)OC(C)(C)C)CC2)nc1` [Example 248, tert-butyl 4-[5-({[3-methyl-5-(quinoxalin-2-ylamino)-1,2-thiazol-4-yl]carbonyl}amino)pyridin-2-yl]piperazine-1-carboxylate]: the IC50 in experiment [1] was 730 nM; with HeLa, 3100 nM.
For the compound `Cc1nsc(Nc2cnc3ccccc3n2)c1C(=O)Nc1cccc(NS(=O)(=O)C2CCN(CC(F)(F)F)CC2)c1` [Example 281, 3-methyl-5-(quinoxalin-2-ylamino)-N-[3-({[1-(2,2,2-trifluoroethyl)piperidin-4-yl]sulfonyl}amino)phenyl]-1,2-thiazole-4-carboxamide], the IC50 was 1200 nM in experiment [1] and 8000 nM in the experiment with HeLa.
